Drawing on PubChem BioAssay AID330 (DTP/NCI, 2004), this text covers T/C for 21 compounds.

Several values for one entry are separate records, joined by “and”; a condition that tells them apart may be missing. Equal entries are not always repeated. Toxic doses and inconclusive results are not listed.

This assay relates to P388 leukemia ip, CD2F1 mice, survival T/C. Nature of the assay: NCI In Vivo Anticancer Drug Screen. Data for tumor model P388 Leukemia (intraperitoneal) in CD2F1 (CDF1) mice. Conditions: endpoint: median survival time, higher = longer survival. As for the experimental part: The antitumor activity of compounds was measured in mice bearing transplantable tumors. Survival or tumor size were measured and the results are expressed as the measurement made in the treated group (T) divided by the measurement made in the vehicle treated control group (C). The tumor model used in this assay is P388 Leukemia (intraperitoneal) in CD2F1 (CDF1) mice

Setting [1] is: dose: 6.25 mg/kg/injection, schedule: Q01DX005 (ip), vehicle: saline with Tween-80.
[2] abbreviates: dose: 12.5 mg/kg/injection, schedule: Q01DX005 (ip), vehicle: saline with Tween-80.
[3] abbreviates: dose: 120.0 mg/kg/injection, schedule: Q01DX005 (ip), vehicle: Klucel (hydroxypropylcellulose) (HPC).
Where [4] appears, read: dose: 12.5 mg/kg/injection, schedule: Q01DX009 (ip), vehicle: saline with Tween-80.
[5] abbreviates: dose: 50.0 mg/kg/injection, schedule: Q01DX009 (ip), vehicle: saline with Tween-80.
The mark [6] stands for this setting: dose: 60.0 mg/kg/injection, schedule: Q01DX005 (ip), vehicle: saline with Tween-80.
The mark [7] stands for this setting: dose: 120.0 mg/kg/injection, schedule: Q01DX005 (ip), vehicle: saline with Tween-80.
Setting [8] is: dose: 240.0 mg/kg/injection, schedule: Q01DX005 (ip), vehicle: saline with Tween-80.
Setting [9] is: dose: 60.0 mg/kg/injection, schedule: Q01DX005 (ip), vehicle: Klucel (hydroxypropylcellulose) (HPC).
Where [10] appears, read: dose: 240.0 mg/kg/injection, schedule: Q01DX005 (ip), vehicle: Klucel (hydroxypropylcellulose) (HPC).
Setting [11] is: dose: 50.0 mg/kg/injection, schedule: Q01DX005 (ip), vehicle: saline.

For `CCC[CH2][Pb]([Cl])([CH2]CCC)[CH2]CCC`, the T/C by setting is: (dose: 1.25 mg/kg/injection, schedule: Q01DX009 (ip), vehicle: saline with Tween-80) 99 % of control; (dose: 2.5 mg/kg/injection, schedule: Q01DX009 (ip), vehicle: saline with Tween-80) 99 % of control; (dose: 5.0 mg/kg/injection, schedule: Q01DX009 (ip), vehicle: saline with Tween-80) 107 % of control; (dose: 10.0 mg/kg/injection, schedule: Q01DX009 (ip), vehicle: saline with Tween-80) 103 % of control.
In the case of `O=C(C[n+]1ccn(CC(OCc2ccc(Cl)cc2Cl)c2ccc(Cl)cc2Cl)c1)c1ccc(F)cc1` (stereo unspecified), the T/C (dose: 3.12 mg/kg/injection, schedule: Q01DX005 (ip), vehicle: saline with Tween-80) is 101 % of control; the T/C under setting [1] is 95 % of control; the T/C under setting [2] is 95 % of control.
As for `CSC(=S)/C(=C/Nc1ncccn1)c1ccccc1`, the T/C reads like this: (dose: 30.0 mg/kg/injection, schedule: Q01DX005 (ip), vehicle: Klucel (hydroxypropylcellulose) (HPC)) 87 % of control; under setting [3], 89 % of control.
`O=C(O)c1cccc(C(=O)O)c1S(=O)c1ccccc1` (stereo unspecified): the T/C (dose: 100.0 mg/kg/injection, schedule: Q04DX002 (ip), vehicle: other) is 102 % of control; the T/C (dose: 200.0 mg/kg/injection, schedule: Q04DX002 (ip), vehicle: other) is 103 % of control; the T/C (dose: 400.0 mg/kg/injection, schedule: Q04DX002 (ip), vehicle: other) was 94 % of control.
As for `C/C(=N\NC(N)=Nc1ccc(Cl)cc1)c1ccc2c(c1)Cc1cc(/C(C)=N/NC(N)=Nc3ccc(Cl)cc3)ccc1-2`, the T/C (dose: 25.0 mg/kg/injection, schedule: Q04DX002 (ip), vehicle: saline with Tween-80) was 87 % of control; the T/C (dose: 50.0 mg/kg/injection, schedule: Q04DX002 (ip), vehicle: saline with Tween-80) was 90 % of control; the T/C (dose: 100.0 mg/kg/injection, schedule: Q04DX002 (ip), vehicle: saline with Tween-80) was 97 % of control; the T/C (dose: 200.0 mg/kg/injection, schedule: Q04DX002 (ip), vehicle: saline with Tween-80) was 101 % of control; the T/C (dose: 400.0 mg/kg/injection, schedule: Q04DX002 (ip), vehicle: saline with Tween-80) is 100 % of control.
With `N=C1CCC(=N)c2c1c(O)c1ccccc1c2O`, the T/C by setting is: under setting [1], 94 % of control; under setting [2], 104 % of control; (dose: 25.0 mg/kg/injection, schedule: Q01DX005 (ip), vehicle: saline with Tween-80) 94 % of control.
With `COC(=O)Nc1nc2ccc(C(=O)c3ccc(F)cc3)cc2[nH]1`, the T/C is, setting by setting: under setting [4], 120 % of control; under setting [5], 180 % of control; (dose: 100.0 mg/kg/injection, schedule: Q01DX009 (ip), vehicle: saline with Tween-80) 217 % of control and 236 % of control.
Consider `NNC(=O)C1CCCC1`, for which the T/C was 113 % of control (dose: 6.25 mg/kg/injection, schedule: Q01DX009 (ip), vehicle: saline with Tween-80); 104 % of control under setting [4]; 100 % of control (dose: 25.0 mg/kg/injection, schedule: Q01DX009 (ip), vehicle: saline with Tween-80); 113 % of control under setting [5].
Turning to `CCCCCCCCCCCC(CCCC)CCCCCCCCCC` (stereo unspecified), the T/C reads like this: (dose: 50.0 mg/kg/injection, schedule: Q01DX001 (ip), vehicle: saline sonified) 100 % of control; (dose: 100.0 mg/kg/injection, schedule: Q01DX001 (ip), vehicle: saline sonified) 104 % of control; (dose: 200.0 mg/kg/injection, schedule: Q01DX001 (ip), vehicle: saline sonified) 100 % of control.
Turning to `COC(=O)N1c2ccccc2C(c2ccccc2)=NC1(C)C#N` (stereo unspecified), the T/C reads like this: under setting [6], 98 % of control; under setting [7], 99 % of control; under setting [8], 100 % of control.
For `CC(C)=CC(C)(O)c1nc2ccccc2s1` (stereo unspecified), the T/C runs as follows: under setting [9], 95 % of control; under setting [3], 93 % of control; under setting [10], 96 % of control.
With `CC1(C)COP(=O)(c2ccccc2)N1` (stereo unspecified), the T/C is, setting by setting: under setting [6], 103 % of control; under setting [7], 107 % of control; under setting [8], 101 % of control.
With `Cc1c2oc3c(C)ccc(C(=O)NC(C(=O)NC(C(=O)NCCO)C(C)C)C(C)O)c3nc-2c(C(=O)NC(C(=O)NC(C(=O)NCCO)C(C)C)C(C)O)c(N)c1=O` (stereo unspecified), the T/C was 99 % of control (dose: 0.05 mg/kg/injection, schedule: Q01DX009 (ip), vehicle: water); 100 % of control (dose: 0.1 mg/kg/injection, schedule: Q01DX009 (ip), vehicle: water); 100 % of control (dose: 0.2 mg/kg/injection, schedule: Q01DX009 (ip), vehicle: water); 97 % of control (dose: 0.4 mg/kg/injection, schedule: Q01DX009 (ip), vehicle: water); 98 % of control (dose: 0.8 mg/kg/injection, schedule: Q01DX009 (ip), vehicle: water); 88 % of control and 94 % of control (dose: 1.6 mg/kg/injection, schedule: Q01DX009 (ip), vehicle: water). Besides, the T/C is, setting by setting: (dose: 3.2 mg/kg/injection, schedule: Q01DX009 (ip), vehicle: water) 92 % of control; (dose: 6.4 mg/kg/injection, schedule: Q01DX009 (ip), vehicle: water) 110 % of control; (dose: 12.8 mg/kg/injection, schedule: Q01DX009 (ip), vehicle: water) 97 % of control.
Take `CCN(CC)CCCNC(=O)C(c1ccccc1)c1ccccc1`: the T/C (dose: 12.5 mg/kg/injection, schedule: Q01DX005 (ip), vehicle: saline) was 100 % of control; the T/C (dose: 25.0 mg/kg/injection, schedule: Q01DX005 (ip), vehicle: saline) is 115 % of control; the T/C under setting [11] is 100 % of control and 92 % of control.
Take `O=c1oc2cc(O)ccc2c2oc3ccccc3c12`: the T/C runs as follows: (dose: 6.2 mg/kg/injection, schedule: Q01DX007 (ip), vehicle: carboxymethylcellulose (CMC)) 91 % of control; (dose: 12.5 mg/kg/injection, schedule: Q01DX007 (ip), vehicle: carboxymethylcellulose (CMC)) 91 % of control; (dose: 25.0 mg/kg/injection, schedule: Q01DX007 (ip), vehicle: carboxymethylcellulose (CMC)) 100 % of control.
On to `CN(CCCCC(O)CN(C)C(=S)S)C(=S)S` (stereo unspecified), for which the T/C is, setting by setting: under setting [11], 98 % of control; (dose: 100.0 mg/kg/injection, schedule: Q01DX005 (ip), vehicle: saline) 102 % of control; (dose: 200.0 mg/kg/injection, schedule: Q01DX005 (ip), vehicle: saline) 98 % of control.
Consider `Nc1nnc2nc(C(C(=O)c3ccc(O)cc3O)c3nc4nnc(N)n4[nH]c3=O)c(=O)[nH]n12`, for which the T/C by setting is: under setting [6], 102 % of control; under setting [7], 98 % of control; under setting [8], 104 % of control.
For `CCC1(c2ccnc3ccccc23)C(=O)OC(C)(C)OC1=O`, the T/C by setting is: (dose: 50.0 mg/kg/injection, schedule: Q01DX009 (ip), vehicle: distilled water + alcohol) 99 % of control; (dose: 100.0 mg/kg/injection, schedule: Q01DX009 (ip), vehicle: distilled water + alcohol) 98 % of control; (dose: 200.0 mg/kg/injection, schedule: Q01DX009 (ip), vehicle: distilled water + alcohol) 87 % of control.
As for `CCOC(=O)Nc1cc(NC/C(=N\O)c2ccc3ccccc3c2)c([N+](=O)[O-])c(N)n1`, the T/C under setting [9] was 100 % of control, the T/C under setting [3] was 100 % of control and the T/C under setting [10] was 96 % of control.
For `COCCCNCC(=O)Nc1ccc(S(=O)(=O)c2ccc(NC(=O)CNCCCOC)cc2)cc1`, the T/C was 107 % of control (dose: 50.0 mg/kg/injection, schedule: Q01DX005 (ip), vehicle: acid diluted with saline); 104 % of control (dose: 100.0 mg/kg/injection, schedule: Q01DX005 (ip), vehicle: acid diluted with saline); 112 % of control (dose: 200.0 mg/kg/injection, schedule: Q01DX005 (ip), vehicle: acid diluted with saline).
As to `C#CC(C)(C)Oc1ccc2c(=O)c(-c3ccc(OC)cc3)coc2c1`, the T/C by setting is: (dose: 50.0 mg/kg/injection, schedule: Q01DX005 (ip), vehicle: saline with Tween-80) 94 % of control; (dose: 100.0 mg/kg/injection, schedule: Q01DX005 (ip), vehicle: saline with Tween-80) 89 % of control.
